Results from ChEMBL document CHEMBL4359925, “Rational discovery of a highly novel and selective mTOR inhibitor” (Bioorg Med Chem Lett, 2019).
Activity calls are given as the source filed them. No cut-off for these calls is given here.

Key:
[1] = Volume of distribution at steady state in mouse at 2.8 mg/kg, iv; type: ADME, organism-based; details: in vivo, read-out: Vdss
[2] = target: Serine/threonine-protein kinase mTOR (Homo sapiens, UniProt P42345); experiment: Inhibition of human mTOR measured after 30 mins in presence of ATP by Lanthascreen TR-FRET assay
[3] = target: Phosphatidylinositol 4,5-bisphosphate 3-kinase catalytic subunit alpha isoform (Homo sapiens, UniProt P42336); experiment: Inhibition of PI3K alpha (unknown origin)
NCI-H929 = experiment: Antiproliferative activity against human NCI-H929 cells; type: functional, cell-based
BT-474 = experiment: Antiproliferative activity against human BT474; type: functional, cell-based
MCF7 = experiment: Antiproliferative activity against human MCF7; type: functional, cell-based
HT-29 = experiment: Antiproliferative activity against human HT-29; type: functional, cell-based
HCT-116 = experiment: Antiproliferative activity against human HCT116; type: functional, cell-based
A498 = experiment: Antiproliferative activity against human A498; type: functional, cell-based
A2780 = experiment: Antiproliferative activity against human A2780; type: functional, cell-based
786-0 = experiment: Antitumour activity against human 786-O cells in xenograft model assessed as tumour growth inhibition at 30 mg/kg, qd; type: functional, organism-based
A549 [4] = experiment: Synergistic antiproliferative activity against human A549 cells harboring LKB1 mutant in presence of erlotinib; type: functional, cell-based
NCI-H460 [5] = experiment: Synergistic antiproliferative activity against human H460 cells harboring LKB1 mutant in presence of erlotinib; type: functional, cell-based
NCI-H1395 [6] = experiment: Additive antiproliferative activity against human NCI-H1395 cells harboring LKB1 mutant in presence of erlotinib; type: functional, cell-based
NCI-H1650 [7] = experiment: Additive antiproliferative activity against human NCI-H1650 cells harboring EGFR E746-A750del mutant in presence of erlotinib; type: functional, cell-based
NCI-H1975 [8] = experiment: Additive antiproliferative activity against human NCI-H1975 cells harboring EGFR […]/T790M mutant in presence of erlotinib; type: functional, cell-based
NCI-H292 [9] = experiment: Additive antiproliferative activity against human NCI-H292 cells in presence of erlotinib; type: functional, cell-based
A549 [10] = experiment: Synergistic antiproliferative activity against human A549 cells harboring LKB1 mutant in presence of gemcitabine; type: functional, cell-based
NCI-H460 [11] = experiment: Synergistic antiproliferative activity against human H460 cells harboring LKB1 mutant in presence of gemcitabine; type: functional, cell-based
NCI-H1395 [12] = experiment: Additive antiproliferative activity against human NCI-H1395 cells harboring LKB1 mutant in presence of gemcitabine; type: functional, cell-based
NCI-H1650 [13] = experiment: Additive antiproliferative activity against human NCI-H1650 cells harboring EGFR E746-A750del mutant in presence of gemcitabine; type: functional, cell-based
NCI-H1975 [14] = experiment: Additive antiproliferative activity against human NCI-H1975 cells harboring EGFR […]/T790M mutant in presence of gemcitabine; type: functional, cell-based
NCI-H292 [15] = experiment: Additive antiproliferative activity against human NCI-H292 cells in presence of gemcitabine; type: functional, cell-based
[16] = Cmax in mouse at 8.7 mg/kg, po; type: ADME, organism-based; design: dose 8.7 mg/kg, route oral; details: in vivo
[17] = Tmax in mouse at 8.7 mg/kg, po; type: ADME, organism-based; details: in vivo
[18] = Half-life in mouse at 8.7 mg/kg, po; type: ADME, organism-based; details: in vivo
[19] = Cmax in rat at 31 mg/kg, po; type: ADME, organism-based; design: dose 31 mg/kg, route oral; details: in vivo
[20] = Tmax in rat at 31 mg/kg, po; type: ADME, organism-based; details: in vivo
[21] = Half-life in rat at 31 mg/kg, po; type: ADME, organism-based; details: in vivo
[22] = Cmax in rat at 160 mg/kg, po; type: ADME, organism-based; design: dose 160 mg/kg, route oral; details: in vivo
[23] = Tmax in rat at 160 mg/kg, po; type: ADME, organism-based; details: in vivo
[24] = Half-life in rat at 160 mg/kg, po; type: ADME, organism-based; details: in vivo
[25] = Cmax in rat at 30 mg/kg, po; type: ADME, organism-based; design: dose 30 mg/kg, route oral; details: in vivo
[26] = Tmax in rat at 30 mg/kg, po; type: ADME, organism-based; details: in vivo
[27] = Half-life in rat at 30 mg/kg, po; type: ADME, organism-based; details: in vivo
[28] = Cmax in dog at 0.45 mg/kg, po; type: ADME, organism-based, Canis lupus familiaris; design: dose 0.45 mg/kg, route oral; details: in vivo
[29] = Tmax in dog at 0.45 mg/kg, po; type: ADME, organism-based, Canis lupus familiaris; details: in vivo
[30] = Half-life in dog at 0.45 mg/kg, po; type: ADME, organism-based, Canis lupus familiaris; details: in vivo
[31] = Cmax in rat at 4.9 mg/kg, po; type: ADME, organism-based; design: dose 4.9 mg/kg, route oral; details: in vivo
[32] = Tmax in rat at 4.9 mg/kg, po; type: ADME, organism-based; details: in vivo
[33] = Half-life in rat at 4.9 mg/kg, po; type: ADME, organism-based; details: in vivo
[34] = Cmax in rat at 83 mg/kg, po; type: ADME, organism-based; design: dose 83 mg/kg, route oral; details: in vivo
[35] = Tmax in rat at 83 mg/kg, po; type: ADME, organism-based; details: in vivo
[36] = Half-life in rat at 83 mg/kg, po; type: ADME, organism-based; details: in vivo
[37] = Cmax in rat at 95 mg/kg, po; type: ADME, organism-based; design: dose 95 mg/kg, route oral; details: in vivo
[38] = Tmax in rat at 95 mg/kg, po; type: ADME, organism-based; details: in vivo
[39] = Half-life in rat at 95 mg/kg, po; type: ADME, organism-based; details: in vivo

Sequence of Phosphatidylinositol 4,5-bisphosphate 3-kinase catalytic subunit alpha isoform (P42336 whole entry, canonical isoform): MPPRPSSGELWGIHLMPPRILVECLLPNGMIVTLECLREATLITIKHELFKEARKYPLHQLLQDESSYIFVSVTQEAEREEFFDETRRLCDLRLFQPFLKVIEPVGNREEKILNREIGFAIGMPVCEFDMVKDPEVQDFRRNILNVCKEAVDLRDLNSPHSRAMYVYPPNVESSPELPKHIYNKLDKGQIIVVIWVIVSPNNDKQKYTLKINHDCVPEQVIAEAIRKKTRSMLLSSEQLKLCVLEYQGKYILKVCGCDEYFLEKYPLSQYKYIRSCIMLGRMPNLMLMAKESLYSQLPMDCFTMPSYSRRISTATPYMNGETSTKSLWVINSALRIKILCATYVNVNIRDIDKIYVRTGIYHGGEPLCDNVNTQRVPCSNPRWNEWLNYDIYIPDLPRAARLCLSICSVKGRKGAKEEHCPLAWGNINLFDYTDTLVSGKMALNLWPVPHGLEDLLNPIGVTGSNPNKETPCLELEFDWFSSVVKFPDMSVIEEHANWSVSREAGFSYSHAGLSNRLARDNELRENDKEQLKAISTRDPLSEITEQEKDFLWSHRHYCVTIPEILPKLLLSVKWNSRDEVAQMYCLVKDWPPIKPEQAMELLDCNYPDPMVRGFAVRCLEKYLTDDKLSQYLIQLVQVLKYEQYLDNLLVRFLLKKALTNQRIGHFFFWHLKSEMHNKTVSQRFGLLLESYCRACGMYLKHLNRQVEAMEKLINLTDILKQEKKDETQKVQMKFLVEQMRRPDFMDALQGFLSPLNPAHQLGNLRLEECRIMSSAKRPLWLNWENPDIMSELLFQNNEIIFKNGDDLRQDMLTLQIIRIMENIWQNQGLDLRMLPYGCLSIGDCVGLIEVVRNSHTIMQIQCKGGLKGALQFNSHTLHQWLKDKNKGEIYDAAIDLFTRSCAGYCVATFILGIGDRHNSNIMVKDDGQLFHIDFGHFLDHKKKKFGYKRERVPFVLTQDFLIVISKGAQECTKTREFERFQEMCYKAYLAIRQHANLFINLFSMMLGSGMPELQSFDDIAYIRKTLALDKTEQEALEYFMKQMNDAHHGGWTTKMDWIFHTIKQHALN

## CC(F)(F)CN1C(=O)[C@]2(C)COCCN2c2nc(-c3ccc(NC(=O)NC4CC4)cc3)ncc21
[1]
  Vd: 1.66 L/kg
[2]
  IC50: 12.6 nM
[3]
  IC50: 1260 nM
NCI-H929
  Activity: Active
BT-474
  Activity: Active
MCF7
  Activity: Active
HT-29
  Activity: Active
HCT-116
  Activity: Active
A498
  Activity: Active
A2780
  Activity: Active
786-0
  TGI: Active
A549 [4]
  Activity: Active
NCI-H460 [5]
  Activity: Active
NCI-H1395 [6]
  Activity: Active
NCI-H1650 [7]
  Activity: Active
NCI-H1975 [8]
  Activity: Active
NCI-H292 [9]
  Activity: Active
A549 [10]
  Activity: Active
NCI-H460 [11]
  Activity: Active
NCI-H1395 [12]
  Activity: Active
NCI-H1650 [13]
  Activity: Active
NCI-H1975 [14]
  Activity: Active
NCI-H292 [15]
  Activity: Active
[16]
  Cmax: 5370 ng/mL
[17]
  Tmax: 4 h
[18]
  half-life: 138 min
[19]
  Cmax: 1910 to 2700 ng/mL
[20]
  Tmax: 8 to 19.3 h
[21]
  half-life: 522 to 1120 min
[22]
  Cmax: 7700 ng/mL
[23]
  Tmax: 10 h
[24]
  half-life: 1280 min
[25]
  Cmax: 1850 to 2400 ng/mL
[26]
  Tmax: 4 to 8 h
[27]
  half-life: 540 to 810 min
[28]
  Cmax: 250 ng/mL
[29]
  Tmax: 4 h
[30]
  half-life: 618 min
[31]
  Cmax: 1190 ng/mL
[32]
  Tmax: 3.3 h
[33]
  half-life: 330 min
[34]
  Cmax: 2370 ng/mL
[35]
  Tmax: 14 h
[36]
  half-life: 324 min
[37]
  Cmax: 2610 ng/mL
[38]
  Tmax: 13.3 h
[39]
  half-life: 2030 min
